Results from PubChem BioAssay (NCI).
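Protocol summary: plate cells (96-well), add compound at 5 concentrations, incubate 48 h, interpolate endpoints linearly. The concentration for full growth arrest is given as TGI.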

What was measured:
Assay in all cases: NCI-60 cell line screen, 48 h
IGROV1 ovarian = system: IGROV1 ovarian
NCI/ADR-RES ovarian = system: NCI/ADR-RES ovarian
MDA-MB-435 = system: MDA-MB-435
MDA-N = system: MDA-N
UACC-257 melanoma = system: UACC-257 melanoma
NCI-H226 lung = system: NCI-H226 lung
NCI-H460 lung = system: NCI-H460 lung
OVCAR-5 ovarian = system: OVCAR-5 ovarian
HOP-92 NSCLC = system: HOP-92 NSCLC
K-562 leukemia = system: K-562 leukemia
KM12 colon = system: KM12 colon
UACC-62 melanoma = system: UACC-62 melanoma
PC-3 prostate = system: PC-3 prostate
MALME-3M melanoma = system: MALME-3M melanoma
SW-620 colon = system: SW-620 colon
TK-10 renal = system: TK-10 renal
LOX IMVI melanoma = system: LOX IMVI melanoma
RPMI-8226 leukemia = system: RPMI-8226 leukemia
HT29 colon = system: HT29 colon
SK-MEL-2 melanoma = system: SK-MEL-2 melanoma
M14 melanoma = system: M14 melanoma
MCF7 breast = system: MCF7 breast
SK-OV-3 ovarian = system: SK-OV-3 ovarian
CAKI-1 renal = system: CAKI-1 renal
HCT-15 colon = system: HCT-15 colon
SNB-75 CNS = system: SNB-75 CNS
SF-295 CNS = system: SF-295 CNS
SF-268 CNS = system: SF-268 CNS
OVCAR-8 ovarian = system: OVCAR-8 ovarian
U251 CNS = system: U251 CNS
HCC-2998 colon = system: HCC-2998 colon
SNB-19 CNS = system: SNB-19 CNS
786-0 renal = system: 786-0 renal
DU-145 prostate = system: DU-145 prostate
BT-549 breast = system: BT-549 breast
NCI-H522 lung = system: NCI-H522 lung
HOP-62 NSCLC = system: HOP-62 NSCLC
RXF 393 renal = system: RXF 393 renal
SK-MEL-5 melanoma = system: SK-MEL-5 melanoma
OVCAR-3 ovarian = system: OVCAR-3 ovarian
ACHN renal = system: ACHN renal
SF-539 CNS = system: SF-539 CNS
HL-60(TB) leukemia = system: HL-60(TB) leukemia
SK-MEL-28 melanoma = system: SK-MEL-28 melanoma
HCT-116 colon = system: HCT-116 colon
T-47D breast = system: T-47D breast
EKVX NSCLC = system: EKVX NSCLC
SR leukemia = system: SR leukemia
SN12C renal = system: SN12C renal
MDA-MB-231 breast = system: MDA-MB-231 breast
A549 NSCLC = system: A549 NSCLC
MOLT-4 leukemia = system: MOLT-4 leukemia
HS 578T breast = system: HS 578T breast
NCI-H23 lung = system: NCI-H23 lung
COLO 205 colon = system: COLO 205 colon
CCRF-CEM leukemia = system: CCRF-CEM leukemia
OVCAR-4 ovarian = system: OVCAR-4 ovarian
UO-31 renal = system: UO-31 renal
A498 renal = system: A498 renal

Q: For `Cc1cc(C)nc(NS(=O)(=O)c2ccc(NNC(=O)c3cccc4c(NNc5ccc(S(=O)(=O)Nc6nc(C)cc(C)n6)cc5)c5ccccc5nc34)cc2)n1`, which TGI (IGROV1 ovarian) is on record?
A: 57.1 µM

Q: And the TGI (NCI/ADR-RES ovarian)?
A: > 100 µM

Q: What about the TGI (MDA-MB-435) of the same molecule?
A: 39.4 µM

Q: And the TGI (MDA-N)?
A: 43.1 µM

Q: What about the TGI (UACC-257 melanoma) of the same molecule?
A: 71.3 µM

Q: What about the TGI (NCI-H226 lung) of the same molecule?
A: 55.9 µM

Q: And the TGI (NCI-H460 lung)?
A: 51.1 µM

Q: And the TGI (OVCAR-5 ovarian)?
A: 40.3 µM

Q: And the TGI (HOP-92 NSCLC)?
A: 70.3 µM

Q: What about the TGI (K-562 leukemia) of the same molecule?
A: 52.4 µM

Q: What about the TGI (KM12 colon) of the same molecule?
A: 35.6 µM

Q: And the TGI (UACC-62 melanoma)?
A: 58.7 µM

Q: And the TGI (PC-3 prostate)?
A: 51 µM

Q: And the TGI (MALME-3M melanoma)?
A: 51.8 µM

Q: What about the TGI (SW-620 colon) of the same molecule?
A: 48.3 µM

Q: And the TGI (TK-10 renal)?
A: 67.7 µM

Q: And the TGI (LOX IMVI melanoma)?
A: 31.3 µM

Q: What about the TGI (RPMI-8226 leukemia) of the same molecule?
A: 64.9 µM

Q: What about the TGI (HT29 colon) of the same molecule?
A: 37.8 µM

Q: And the TGI (SK-MEL-2 melanoma)?
A: 57.5 µM

Q: What about the TGI (M14 melanoma) of the same molecule?
A: 32.6 µM

Q: What about the TGI (MCF7 breast) of the same molecule?
A: 62.4 µM

Q: And the TGI (SK-OV-3 ovarian)?
A: 87.1 µM

Q: What about the TGI (CAKI-1 renal) of the same molecule?
A: 41.8 µM

Q: And the TGI (HCT-15 colon)?
A: 36.1 µM

Q: And the TGI (SNB-75 CNS)?
A: 52.3 µM

Q: What about the TGI (SF-295 CNS) of the same molecule?
A: 88.1 µM

Q: And the TGI (SF-268 CNS)?
A: 61 µM

Q: What about the TGI (OVCAR-8 ovarian) of the same molecule?
A: 43.4 µM

Q: And the TGI (U251 CNS)?
A: 46.6 µM

Q: What about the TGI (HCC-2998 colon) of the same molecule?
A: 37.7 µM

Q: And the TGI (SNB-19 CNS)?
A: 72.7 µM

Q: And the TGI (786-0 renal)?
A: 54.1 µM

Q: And the TGI (DU-145 prostate)?
A: 36.8 µM

Q: And the TGI (BT-549 breast)?
A: 71.4 µM

Q: What about the TGI (NCI-H522 lung) of the same molecule?
A: 40.8 µM

Q: What about the TGI (HOP-62 NSCLC) of the same molecule?
A: 85.9 µM

Q: What about the TGI (RXF 393 renal) of the same molecule?
A: 48.7 µM

Q: And the TGI (SK-MEL-5 melanoma)?
A: 33 µM

Q: And the TGI (OVCAR-3 ovarian)?
A: 66.5 µM

Q: What about the TGI (ACHN renal) of the same molecule?
A: 33.3 µM

Q: And the TGI (SF-539 CNS)?
A: 43.6 µM

Q: And the TGI (HL-60(TB) leukemia)?
A: 47 µM

Q: What about the TGI (SK-MEL-28 melanoma) of the same molecule?
A: 48.7 µM

Q: What about the TGI (HCT-116 colon) of the same molecule?
A: 48.2 µM

Q: And the TGI (T-47D breast)?
A: 78.9 µM

Q: And the TGI (EKVX NSCLC)?
A: 40.5 µM

Q: And the TGI (SR leukemia)?
A: 53.1 µM

Q: And the TGI (SN12C renal)?
A: > 100 µM

Q: What about the TGI (MDA-MB-231 breast) of the same molecule?
A: 44.9 µM

Q: And the TGI (A549 NSCLC)?
A: 96.8 µM

Q: And the TGI (MOLT-4 leukemia)?
A: 66.8 µM

Q: And the TGI (HS 578T breast)?
A: 71.9 µM

Q: And the TGI (NCI-H23 lung)?
A: 51.6 µM

Q: And the TGI (COLO 205 colon)?
A: 46.3 µM

Q: What about the TGI (CCRF-CEM leukemia) of the same molecule?
A: 51.2 µM

Q: What about the TGI (OVCAR-4 ovarian) of the same molecule?
A: 68 µM

Q: And the TGI (UO-31 renal)?
A: 51.1 µM

Q: `NC(N)=NS(=O)(=O)c1ccc(Nc2c3ccccc3nc3c(C(=O)NC(CO)(CO)CO)cccc23)cc1` was tested. Which TGI (IGROV1 ovarian) did it give?
A: > 100 µM

Q: And the TGI (NCI/ADR-RES ovarian)?
A: > 100 µM

Q: What about the TGI (MDA-MB-435) of the same molecule?
A: > 100 µM

Q: And the TGI (MDA-N)?
A: > 100 µM

Q: What about the TGI (UACC-257 melanoma) of the same molecule?
A: > 100 µM

Q: What about the TGI (NCI-H460 lung) of the same molecule?
A: 16.6 µM

Q: What about the TGI (OVCAR-5 ovarian) of the same molecule?
A: 65.4 µM

Q: And the TGI (HOP-92 NSCLC)?
A: 48.9 µM

Q: And the TGI (K-562 leukemia)?
A: > 100 µM

Q: What about the TGI (KM12 colon) of the same molecule?
A: 38.5 µM

Q: And the TGI (UACC-62 melanoma)?
A: 94.6 µM

Q: What about the TGI (PC-3 prostate) of the same molecule?
A: > 100 µM

Q: And the TGI (MALME-3M melanoma)?
A: 45.3 µM

Q: And the TGI (SW-620 colon)?
A: > 100 µM

Q: And the TGI (TK-10 renal)?
A: 94.5 µM

Q: And the TGI (LOX IMVI melanoma)?
A: > 100 µM

Q: What about the TGI (RPMI-8226 leukemia) of the same molecule?
A: 58.5 µM

Q: What about the TGI (HT29 colon) of the same molecule?
A: 61.1 µM

Q: And the TGI (SK-MEL-2 melanoma)?
A: 50.8 µM

Q: What about the TGI (M14 melanoma) of the same molecule?
A: 68.3 µM

Q: What about the TGI (MCF7 breast) of the same molecule?
A: 95.3 µM

Q: And the TGI (SK-OV-3 ovarian)?
A: > 100 µM

Q: What about the TGI (CAKI-1 renal) of the same molecule?
A: > 100 µM

Q: And the TGI (HCT-15 colon)?
A: > 100 µM

Q: What about the TGI (SNB-75 CNS) of the same molecule?
A: 18.7 µM

Q: And the TGI (SF-295 CNS)?
A: > 100 µM

Q: What about the TGI (SF-268 CNS) of the same molecule?
A: > 100 µM

Q: What about the TGI (OVCAR-8 ovarian) of the same molecule?
A: > 100 µM

Q: What about the TGI (U251 CNS) of the same molecule?
A: > 100 µM

Q: What about the TGI (HCC-2998 colon) of the same molecule?
A: > 100 µM

Q: And the TGI (SNB-19 CNS)?
A: > 100 µM

Q: And the TGI (786-0 renal)?
A: 46.2 µM

Q: What about the TGI (DU-145 prostate) of the same molecule?
A: > 100 µM

Q: And the TGI (BT-549 breast)?
A: 36.7 µM

Q: What about the TGI (NCI-H522 lung) of the same molecule?
A: 30.9 µM

Q: And the TGI (HOP-62 NSCLC)?
A: 87.4 µM

Q: And the TGI (SK-MEL-5 melanoma)?
A: 57.5 µM

Q: What about the TGI (OVCAR-3 ovarian) of the same molecule?
A: > 100 µM

Q: And the TGI (ACHN renal)?
A: 40.8 µM

Q: And the TGI (HL-60(TB) leukemia)?
A: 71.4 µM

Q: What about the TGI (SK-MEL-28 melanoma) of the same molecule?
A: > 100 µM

Q: And the TGI (T-47D breast)?
A: > 100 µM

Q: And the TGI (EKVX NSCLC)?
A: > 100 µM

Q: What about the TGI (SR leukemia) of the same molecule?
A: > 100 µM

Q: And the TGI (SN12C renal)?
A: > 100 µM

Q: What about the TGI (MDA-MB-231 breast) of the same molecule?
A: > 100 µM

Q: What about the TGI (A549 NSCLC) of the same molecule?
A: 38.2 µM

Q: What about the TGI (MOLT-4 leukemia) of the same molecule?
A: > 100 µM

Q: What about the TGI (HS 578T breast) of the same molecule?
A: 41.2 µM

Q: What about the TGI (NCI-H23 lung) of the same molecule?
A: > 100 µM

Q: What about the TGI (COLO 205 colon) of the same molecule?
A: 51.7 µM

Q: And the TGI (A498 renal)?
A: 72.6 µM

Q: What about the TGI (CCRF-CEM leukemia) of the same molecule?
A: 54.8 µM

Q: What about the TGI (UO-31 renal) of the same molecule?
A: 95.2 µM
